Test results taken from US9253983B2, “Triazole compound and use thereof” (KUREHA CORPORATION, priority 2011, dated 2016).

Tests used:
Botrytis cinerea [1] = assay: Controlling effect on cucumber gray mold by foliage spray treatment (Tests 1 and 2); format: in vivo; details: four days after inoculation
Procedure: The cucumber plants had been grown in square plastic pots (6 cm×6 cm). After the suspension was then left to dry, paper discs (8 mm in diameter) impregnated with a spore suspension of Botrytis cinerea w ere placed on the leaves, and the plants were kept at 20° C. in a high humidity environment. Four days after inoculation, the lesion degree of the cucumber gray mold was examined in accordance with the criteria shown in Table 1, and the protective values were calculated by the following equation: Protective value (%)=(1−Average lesion degree in sprayed plot/Average lesion degree in unsprayed plot)×100.
The cucumber plants had been grown in square plastic pots (6 cm×6 cm). After the leaves were air-dried, paper discs (8 mm in diameter) impregnated with a spore suspension of cucumber graymold-causing microorganisms were placed on the leaves, and the plants were kept at 20° C. in a high humidity environment. 4 days after the inoculation, the lesion degree of the cucumber gray mold was examined, and the protective values were calculated as were in Experiment Example 1.

Puccinia recondita = assay: Controlling effect on wheat brown rust (leaf rust) by foliage spray treatment (Tests 1 and 2); format: in vivo; details: foliage spray 0.8 mg/L, 1,000 L/ha, 11 days after inoculation
Procedure: The wheat plants had been grown in square plastic pots (6 cm×6 cm). The suspensions were left to dry, and inoculated with spores of Puccinia recondita (adjusted at 200 spores per field of vision, Gramin S was added at 60 ppm) by spraying, and kept at 25° C. in a high humidity environment for 48 hours. After that, the plants were kept in a greenhouse. 11 days after the inoculation, the lesion degree of the wheat leaf rust was examined in accordance with the criteria shown in Table 4, and the protective values were calculated by the following equation. Protective value (%)=(1−Average lesion degree in sprayed plot/Average lesion degree in unsprayed plot)×100
The wheat plants had been grown in square plastic pots (6 cm×6 cm). The leaves were air-dried, and inoculated with spores of Puccinia recondita (adjusted at 200 spores per field of vision, Gramin S was added at 60 ppm) by spraying, and kept at 25° C. in a high humidity environment for 48 hours. After that, the plants were kept in a greenhouse. 11 days after the inoculation, the lesion degree of the wheat leaf rust was examined, and the protective values were calculated as were in Experiment Example 2.

Phaeosphaeria nodorum = assay: Test 1 for antifungal effect, plate medium: P.n; format: cell-based; details: PDA plate medium
Procedure: (§1) Compound (1-1a) or Compound (1-2a) was dissolved in dimethyl sulfoxide, and the resulting solution was added to a PDA medium (potato dextrose-agar medium) at about 60° C. The medium and the solution were mixed thoroughly in a conical flask, poured into a petri dish, and allowed to solidify. In this way, a plate medium containing Compound (1-1a) or Compound (1-2a) at a certain concentration was prepared.
(§2) Meanwhile, test microorganisms cultured on a plate medium in advance were cut out with the use of a cork borer 4 mm in diameter, and were inoculated onto the compound-containing plate medium. After the inoculation, the microorganisms were cultured at their optimum growth temperatures (for example, refer to LIST OF CULTURES 1996 microorganisms 10th edition, Institute for Fermentation (foundation)) for 1 day to 7 days, and their growth was determined by measuring the diameter of their flora. The extent of growth of the microorganisms on the compound-containing plate medium was compared with that of microorganisms on a plate medium where no compound was added, and mycelial growth inhibition rate was calculated by the following equation: R=100(dc−dt)/dc where R is mycelial growth inhibition rate (%), dc is the flora diameter in untreated plate, and dt is the flora diameter in plate treated with the compound.
(§3) A larger antifungal index indicates a better antifungal effect.

Microdochium nivale = assay: Test 1 for antifungal effect, plate medium: M.n; format: cell-based; details: PDA plate medium
Procedure: as §1, §2, §3

Gaeumannomyces graminis = assay: Test 1 for antifungal effect, plate medium: G.g; format: cell-based; details: PDA plate medium
Procedure: as §1, §2, §3

Rhizopus oryzae = assay: Test 1 for antifungal effect, plate medium: R.o; format: cell-based; details: PDA plate medium
Procedure: as §1, §2, §3

Botrytis cinerea [2] = assay: Test 1 for antifungal effect, plate medium: B.c; format: cell-based; details: PDA plate medium
Procedure: as §1, §2, §3

Glomerella cingurata = assay: Test 1 for antifungal effect, plate medium: G.c; format: cell-based; details: PDA plate medium
Procedure: as §1, §2, §3

Pyrenophora graminea = assay: Test 2 for antifungal effect, plate medium: P.g; format: cell-based; details: PDA plate medium
Procedure: as §1, with “(1-1b)” for “(1-1a)”, “(1-2b)” for “(1-2a)”
Meanwhile, test microorganisms cultured on a plate medium in advance were cut out with the use of a cork borer 4 mm in diameter, and were inoculated onto the compound-containing plate medium. After the inoculation, the pathogens were cultured at their optimum growth temperatures (for example, refer to LIST OF CULTURES 1996 microorganisms 10th edition, Institute for Fermentation (foundation)) for 1 day to 7 days, and their growth was determined by measuring the diameter of their flora. The extent of growth of the pathogens on the compound-containing plate medium was compared with that of pathogens on a plate medium where no compound was added, and mycelial growth inhibition rate was calculated as in Experiment Example 10. Note that, in Experiment Example 11, controls used in the antifungal effect tests are Compound (1-1a) and Compound (1-2a) instead of Compound (1-1b) and Compound (1-2b), respectively.
The results were rated on a 1-to-5 scale as in Experiment Example 10.

[3] = foliage spray 12.5 mg/L, 1,000 L/ha

CC1(CCl)CCC(Cc2ccc(Cl)cc2)C1(O)Cn1cncn1 (single isomer, unassigned) [Compound (1-1b), (1,2-cis, 1,5-cis)-5-(4-chlorobenzyl)-2-chloromethyl-2-methyl-1-(1H-1,2,4-triazole-1-ylmethyl)cyclopentanol]
Protective value (%) (Botrytis cinerea [1]; [3]): 45%
Protective value (%) (Puccinia recondita): 29%
Antifungal index (mycelial growth inhibition rate) (Phaeosphaeria nodorum; 0.16 mg/L): 2 (Less than 70% but not less than 60%)
Antifungal index (mycelial growth inhibition rate) (Phaeosphaeria nodorum; 0.31 mg/L): 2 (Less than 70% but not less than 60%)
Antifungal index (mycelial growth inhibition rate) (Phaeosphaeria nodorum; 0.63 mg/L): 2 (Less than 70% but not less than 60%)
Antifungal index (mycelial growth inhibition rate) (Phaeosphaeria nodorum; 1.25 mg/L): 3 (Less than 80% but not less than 70%)
Antifungal index (mycelial growth inhibition rate) (Phaeosphaeria nodorum; 2.50 mg/L): 5 (90% or greater)
Antifungal index (mycelial growth inhibition rate) (Microdochium nivale; 0.16 mg/L): 1 (Less than 60%)
Antifungal index (mycelial growth inhibition rate) (Microdochium nivale; 0.31 mg/L): 1 (Less than 60%)
Antifungal index (mycelial growth inhibition rate) (Microdochium nivale; 0.63 mg/L): 1 (Less than 60%)
Antifungal index (mycelial growth inhibition rate) (Microdochium nivale; 1.25 mg/L): 2 (Less than 70% but not less than 60%)
Antifungal index (mycelial growth inhibition rate) (Microdochium nivale; 2.50 mg/L): 3 (Less than 80% but not less than 70%)
Antifungal index (mycelial growth inhibition rate) (Gaeumannomyces graminis; 0.16 mg/L): 1 (Less than 60%)
Antifungal index (mycelial growth inhibition rate) (Gaeumannomyces graminis; 0.31 mg/L): 1 (Less than 60%)
Antifungal index (mycelial growth inhibition rate) (Gaeumannomyces graminis; 0.63 mg/L): 2 (Less than 70% but not less than 60%)
Antifungal index (mycelial growth inhibition rate) (Gaeumannomyces graminis; 1.25 mg/L): 5 (90% or greater)
Antifungal index (mycelial growth inhibition rate) (Gaeumannomyces graminis; 2.50 mg/L): 5 (90% or greater)
Antifungal index (mycelial growth inhibition rate) (Rhizopus oryzae; 0.16 mg/L): 1 (Less than 60%)
Antifungal index (mycelial growth inhibition rate) (Rhizopus oryzae; 0.31 mg/L): 1 (Less than 60%)
Antifungal index (mycelial growth inhibition rate) (Rhizopus oryzae; 0.63 mg/L): 1 (Less than 60%)
Antifungal index (mycelial growth inhibition rate) (Rhizopus oryzae; 1.25 mg/L): 1 (Less than 60%)
Antifungal index (mycelial growth inhibition rate) (Rhizopus oryzae; 2.50 mg/L): 4 (Less than 90% but not less than 80%)
Antifungal index (mycelial growth inhibition rate) (Botrytis cinerea [2]; 0.16 mg/L): 1 (Less than 60%)
Antifungal index (mycelial growth inhibition rate) (Botrytis cinerea [2]; 0.31 mg/L): 1 (Less than 60%)
Antifungal index (mycelial growth inhibition rate) (Botrytis cinerea [2]; 0.63 mg/L): 3 (Less than 80% but not less than 70%)
Antifungal index (mycelial growth inhibition rate) (Botrytis cinerea [2]; 1.25 mg/L): 4 (Less than 90% but not less than 80%)
Antifungal index (mycelial growth inhibition rate) (Botrytis cinerea [2]; 2.50 mg/L): 5 (90% or greater)
Antifungal index (mycelial growth inhibition rate) (Glomerella cingurata; 0.16 mg/L): 2 (Less than 70% but not less than 60%)
Antifungal index (mycelial growth inhibition rate) (Glomerella cingurata; 0.31 mg/L): 4 (Less than 90% but not less than 80%)
Antifungal index (mycelial growth inhibition rate) (Glomerella cingurata; 0.63 mg/L): 5 (90% or greater)
Antifungal index (mycelial growth inhibition rate) (Glomerella cingurata; 1.25 mg/L): 5 (90% or greater)
Antifungal index (mycelial growth inhibition rate) (Glomerella cingurata; 2.50 mg/L): 5 (90% or greater)
Antifungal index (mycelial growth inhibition rate) (Pyrenophora graminea; 0.04 mg/L): 3 (Less than 80% but not less than 70%)
Antifungal index (mycelial growth inhibition rate) (Pyrenophora graminea; 0.08 mg/L): 4 (Less than 90% but not less than 80%)
Antifungal index (mycelial growth inhibition rate) (Pyrenophora graminea; 0.16 mg/L): 5 (90% or greater)
Antifungal index (mycelial growth inhibition rate) (Pyrenophora graminea; 0.31 mg/L): 5 (90% or greater)
Antifungal index (mycelial growth inhibition rate) (Pyrenophora graminea; 0.63 mg/L): 5 (90% or greater)
Antifungal index (mycelial growth inhibition rate) (Pyrenophora graminea; 1.25 mg/L): 5 (90% or greater)

CC1(CCl)CCC(Cc2ccc(F)cc2)C1(O)Cn1cncn1 (single isomer, unassigned) [Compound (1-2b), (1,2-cis, 1,5-cis)-5-(4-fluorobenzyl)-2-chloromethyl-2-methyl-1-(1H-1,2,4-triazole-1-ylmethyl)cyclopentanol]
Protective value (%) (Botrytis cinerea [1]; foliage spray 3.1 mg/L, 1,000 L/ha): 15%
Protective value (%) (Botrytis cinerea [1]; [3]): 98%
Protective value (%) (Puccinia recondita): 80%
Antifungal index (mycelial growth inhibition rate) (Phaeosphaeria nodorum; 0.16 mg/L): 1 (Less than 60%)
Antifungal index (mycelial growth inhibition rate) (Phaeosphaeria nodorum; 0.31 mg/L): 1 (Less than 60%)
Antifungal index (mycelial growth inhibition rate) (Phaeosphaeria nodorum; 0.63 mg/L): 2 (Less than 70% but not less than 60%)
Antifungal index (mycelial growth inhibition rate) (Phaeosphaeria nodorum; 1.25 mg/L): 3 (Less than 80% but not less than 70%)
Antifungal index (mycelial growth inhibition rate) (Phaeosphaeria nodorum; 2.50 mg/L): 5 (90% or greater)
Antifungal index (mycelial growth inhibition rate) (Microdochium nivale; 0.16 mg/L): 1 (Less than 60%)
Antifungal index (mycelial growth inhibition rate) (Microdochium nivale; 0.31 mg/L): 1 (Less than 60%)
Antifungal index (mycelial growth inhibition rate) (Microdochium nivale; 0.63 mg/L): 1 (Less than 60%)
Antifungal index (mycelial growth inhibition rate) (Microdochium nivale; 1.25 mg/L): 1 (Less than 60%)
Antifungal index (mycelial growth inhibition rate) (Microdochium nivale; 2.50 mg/L): 2 (Less than 70% but not less than 60%)
Antifungal index (mycelial growth inhibition rate) (Gaeumannomyces graminis; 0.16 mg/L): 1 (Less than 60%)
Antifungal index (mycelial growth inhibition rate) (Gaeumannomyces graminis; 0.31 mg/L): 1 (Less than 60%)
Antifungal index (mycelial growth inhibition rate) (Gaeumannomyces graminis; 0.63 mg/L): 4 (Less than 90% but not less than 80%)
Antifungal index (mycelial growth inhibition rate) (Gaeumannomyces graminis; 1.25 mg/L): 5 (90% or greater)
Antifungal index (mycelial growth inhibition rate) (Gaeumannomyces graminis; 2.50 mg/L): 5 (90% or greater)
Antifungal index (mycelial growth inhibition rate) (Rhizopus oryzae; 0.16 mg/L): 1 (Less than 60%)
Antifungal index (mycelial growth inhibition rate) (Rhizopus oryzae; 0.31 mg/L): 1 (Less than 60%)
Antifungal index (mycelial growth inhibition rate) (Rhizopus oryzae; 0.63 mg/L): 1 (Less than 60%)
Antifungal index (mycelial growth inhibition rate) (Rhizopus oryzae; 1.25 mg/L): 1 (Less than 60%)
Antifungal index (mycelial growth inhibition rate) (Rhizopus oryzae; 2.50 mg/L): 2 (Less than 70% but not less than 60%)
Antifungal index (mycelial growth inhibition rate) (Botrytis cinerea [2]; 0.16 mg/L): 1 (Less than 60%)
Antifungal index (mycelial growth inhibition rate) (Botrytis cinerea [2]; 0.31 mg/L): 3 (Less than 80% but not less than 70%)
Antifungal index (mycelial growth inhibition rate) (Botrytis cinerea [2]; 0.63 mg/L): 5 (90% or greater)
Antifungal index (mycelial growth inhibition rate) (Botrytis cinerea [2]; 1.25 mg/L): 5 (90% or greater)
Antifungal index (mycelial growth inhibition rate) (Botrytis cinerea [2]; 2.50 mg/L): 5 (90% or greater)
Antifungal index (mycelial growth inhibition rate) (Glomerella cingurata; 0.16 mg/L): 3 (Less than 80% but not less than 70%)
Antifungal index (mycelial growth inhibition rate) (Glomerella cingurata; 0.31 mg/L): 4 (Less than 90% but not less than 80%)
Antifungal index (mycelial growth inhibition rate) (Glomerella cingurata; 0.63 mg/L): 5 (90% or greater)
Antifungal index (mycelial growth inhibition rate) (Glomerella cingurata; 1.25 mg/L): 5 (90% or greater)
Antifungal index (mycelial growth inhibition rate) (Glomerella cingurata; 2.50 mg/L): 5 (90% or greater)
Antifungal index (mycelial growth inhibition rate) (Pyrenophora graminea; 0.04 mg/L): 4 (Less than 90% but not less than 80%)
Antifungal index (mycelial growth inhibition rate) (Pyrenophora graminea; 0.08 mg/L): 5 (90% or greater)
Antifungal index (mycelial growth inhibition rate) (Pyrenophora graminea; 0.16 mg/L): 5 (90% or greater)
Antifungal index (mycelial growth inhibition rate) (Pyrenophora graminea; 0.31 mg/L): 5 (90% or greater)
Antifungal index (mycelial growth inhibition rate) (Pyrenophora graminea; 0.63 mg/L): 5 (90% or greater)
Antifungal index (mycelial growth inhibition rate) (Pyrenophora graminea; 1.25 mg/L): 5 (90% or greater)
